Measured values published in paper PMC6255377, “New 1-Aryl-3-Substituted Propanol Derivatives as Antimalarial Agents” (Molecules, 2009).
Where a name gives a salt, the structure may show the parent alone. Read-outs that look alike come from different tables or passages of the source.

Columns and labels:
[1] = tested on: P. falciparum 3D7 strain, chloroquine sensitive; test: In vitro antimalarial activity screening (SYBR Green I micromethod); type: cell-based; settings: Plasmodium falciparum, 3D7, 48 h incubation, mean of two experiments in triplicate, read-out: P. falciparum 3D7 IC50
Experimental: The SYBR^©GreenI-based micromethod was followed for testing the antimalarial activity of the compounds. Erythrocytic stages of P. falciparum 3D7 strain, chloroquine sensitive, were maintained in RPMI 1640 culture medium supplemented with 0.5% Albumax II at 37 °C in an atmosphere with 5% CO2. […] Next, stock solutions of each compound were prepared in DMSO and diluted in RPMI medium in order to obtain concentrations from 10 to 0.01 µg/mL. […] All compounds and controls were placed in triplicate. The plate was incubated under the same conditions. After 48 h, the plate was removed from the incubator and frozen for at least 1 h at -70 °C and then thawed. Finally, 100 µL of SYBR^©GreenI in lysis buffer (0.2 µL/mL) was added per well and shaken for 5 minutes or until no precipitated erythrocytes were observed. The plate was left to stand in the dark for 1 h at room temperature. Fluorescence intensity (FI) for each well was measured. The background of the nonparasitized erythrocytes was subtracted from each well tested.

Structure (SMILES) | IC50 ([1]; Table 2) [µM] | IC50 ([1]; Table 1) [µM] | melting point [°C]
OC(CCN1CCN(c2ccc(Cl)cc2)CC1)c1ccsc1 (stereo not drawn) [Compound 36] | > 20 |  | 
OC(CCN1CCN(c2cnc3ccccc3n2)CC1)c1csc2ccccc12 (stereo not drawn) [Compound 35, 1-(Benzo[b]thiophen-3-yl)-3-(4-(quinoxalin-2-yl)piperazin-1-yl)propan-1-ol] |  | 0.62 | 155 to 156
OC(CCN1CCN(c2cccc3[nH]ccc23)CC1)c1csc2ccccc12 (stereo not drawn) [Compound 17] |  | 6.99 | 
COc1ccccc1N1CCN(CCC(O)c2ccccc2)CC1 (stereo not drawn) [Compound 39] | > 20 |  | 
O=[N+]([O-])c1ccc(N2CCN(CCC(O)c3csc4ccccc34)CC2)c(C(F)(F)F)c1 (stereo not drawn) [Compound 28, 1-(Benzo[b]thiophen-3-yl)-3-[4-(4-nitro-2-trifluoromethylphenyl)piperazin-1-yl]propan-1-ol] |  | 0.68 | 154 to 155
COc1ccccc1N1CCN(CCC(O)c2ccc(C)cc2C)CC1 (stereo not drawn) [Compound 43] | 16.9 |  | 
OC(CCN1CCN(c2ccc(Cl)cc2)CC1)c1ccc(-c2ccccc2)cc1 (stereo not drawn) [Compound 38, 1-(4-Phenyl)phenyl-3-[4-(4-chlorophenyl)piperazin-1-yl]propan-1-ol] | > 20 |  | 169 to 170
O=[N+]([O-])c1ccc(N2CCCN(CCC(O)c3csc4ccccc34)CC2)cc1 (stereo not drawn) [Compound 34, 1-(Benzo[b]thiophen-3-yl)-3-(4-(4-nitrophenyl)-1,4-diazepan-1-yl)propan-1-ol] |  | 3.43 | 47 to 48
Oc1ccccc1N1CCN(CCC(O)c2csc3ccccc23)CC1 (stereo not drawn) [Compound 14] |  | 13.7 | 
COc1ccccc1N1CCN(CCC(O)c2ccc(-c3ccccc3)cc2)CC1 (stereo not drawn) [Compound 40, 1-(4-Phenyl)phenyl-3-[4-(2-methoxyphenyl)piperazin-1-yl]propan-1-ol] | 14.6 |  | 109 to 110
O=C(CCN1CCN(c2cccc3cccnc23)CC1)c1csc2ccc(F)cc12 [Compound 4] |  | > 20 | 
COc1ccccc1N1CCN(CCC(O)c2ccc3cc(C)ccc3c2)CC1 (stereo not drawn) [Compound 44, 1-(6-methylnapth-2-yl)-3-[4-(2-methoxyphenyl)piperazin-1-yl]propan-1-ol] | 9.64 |  | 
O=C(CCN1CCCN(c2ccc([N+](=O)[O-])cc2)CC1)c1csc2ccccc12 (as salt: hydrochloride) [Compound 9, 1-(benzo[b]thiophen-3-yl)-3-[4-(4-nitrophenyl)-1,4-diazepan-1-yl]propan-1-one] |  |  | 121 to 123
COc1ccccc1N1CCN(CCC(O)c2csc3ccccc23)CC1 (stereo not drawn) [Compound 13] |  | 1.07 | 
O=C(CCN1CCN(c2ccc([N+](=O)[O-])cc2C(F)(F)F)CC1)c1csc2ccccc12 [Compound 6, 1-(Benzo[b]thiophen-3-yl)-3-[4-(4-nitro-2-trifluoromethylphenyl)piperazin-1-yl]propan-1-ona] |  | > 20 | 140 to 141
O=[N+]([O-])c1ccc(N2CCC(NCCC(O)c3csc4ccccc34)CC2)cc1 (stereo not drawn) [Compound 33, 1-(Benzo[b]thiophen-3-yl)-3-(1-(4-nitrophenyl)piperidin-4-ylamino)propan-1-ol] |  | 1 | 153 to 155
O=[N+]([O-])c1ccc(N2CC[C@H](NCCC(O)c3csc4ccccc34)C2)c(C(F)(F)F)c1 (stereo partly drawn) [Compound 30, 1-(Benzo[b]thiophen-3-yl)-3-[1-(4-nitro-2-trifluoromethylphenyl)-(S)-pyrrolidin-3-ylamino]propan-1-ol] |  | 0.97 | 109 to 110
OC(CCN1CCN(c2cccc3c2OCCO3)CC1)c1csc2ccccc12 (stereo not drawn) [Compound 26] |  | 3.56 | 
COc1ccccc1N1CCN(CCC(=O)c2csc3ccccc23)CC1 [Compound 3] |  | > 20 | 
COc1cccc(N2CCN(CCC(O)c3csc4ccc(F)cc34)CC2)c1 (stereo not drawn) [Compound 16, 1-(5-fluorobenzo[b]thiophen-3-yl)-3-[4-(3-methoxyphenyl)piperazin-1-yl]propan-1-ol] |  | 1.67 | 
COc1ccccc1N1CCN(CCC(=O)c2csc3ccc(F)cc23)CC1 [Compound 2] |  | > 20 | 
OC(CCN1CCN(c2cccc3[nH]ccc23)CC1)c1csc2ccc(F)cc12 (stereo not drawn) [Compound 18] |  | 3.81 | 
OC(CCN1CCN(c2ccc(Cl)cc2)CC1)c1ccccc1 (stereo not drawn) [Compound 37] | 13 |  | 

Structure (SMILES) | IC50 ([1]; Table 2) [µM] | IC50 ([1]; Table 1) [µM] | melting point [°C]
Cc1ccc2cccc(N3CCN(CCC(=O)c4csc5ccccc45)CC3)c2n1 [Compound 5] |  | > 20 | 
COc1cccc(N2CCN(CCC(O)c3csc4ccc(F)cc34)CC2)c1 (stereo not drawn) (as salt: hydrochloride) [Compound 16, 1-(5-fluorobenzo[b]thiophen-3-yl)-3-[4-(3-methoxyphenyl)piperazin-1-yl]propan-1-ol] |  |  | 135 to 137
OC(CCN1CCN(c2cccc3ccccc23)CC1)c1csc2ccccc12 (stereo not drawn) [Compound 11] |  | 6.13 | 
OC(CCN1CCN(c2cccc3ncccc23)CC1)c1csc2ccccc12 (stereo not drawn) [Compound 24] |  | 1.3 | 
O=[N+]([O-])c1ccc([C@@]2(NCCC(O)c3ccc4ccccc4c3)CCNC2)c(C(F)(F)F)c1 (stereo partly drawn) (as salt: hydrochloride) [Compound 45, 1-(2-naphthyl)-3-[3-(4-nitro-2-trifluoromethylphenyl)-(S)-pyrrolidin-3-ylamino]-propan-1-ol] |  |  | 181 to 183
COc1ccccc1N1CCN(CCC(O)c2ccc3cc(C)ccc3c2)CC1 (stereo not drawn) (as salt: hydrochloride) [Compound 44, 1-(6-methylnapth-2-yl)-3-[4-(2-methoxyphenyl)piperazin-1-yl]propan-1-ol] |  |  | 116 to 117
Cc1ccc(C(O)CCN2CCN(c3ccccc3O)CC2)c(C)c1 (stereo not drawn) [Compound 46] | 18.2 |  | 
OC(CCN1CCN(c2ccc3ccccc3n2)CC1)c1csc2ccccc12 (stereo not drawn) [Compound 25] |  | 2.22 | 
O=[N+]([O-])c1ccc([C@@]2(NCCC(O)c3ccc4ccccc4c3)CCNC2)c(C(F)(F)F)c1 (stereo partly drawn) [Compound 45, 1-(2-naphthyl)-3-[3-(4-nitro-2-trifluoromethylphenyl)-(S)-pyrrolidin-3-ylamino]-propan-1-ol] | 9.1 |  | 
OC(CCN1CCN(c2cccc3cccnc23)CC1)c1csc2ccc(F)cc12 (stereo not drawn) [Compound 21] |  | 0.79 | 
Cc1ccc2cccc(N3CCN(CCC(O)c4csc5ccccc45)CC3)c2n1 (stereo not drawn) [Compound 22] |  | 0.66 | 
O=[N+]([O-])c1ccc(N2CCN(CCC(O)c3csc4ccc(F)cc34)CC2)cc1 (stereo not drawn) [Compound 32, 1-(5-Fluorobenzo[b]thiophen-3-yl)-3-[4-(4-nitrophenyl)piperazin-1-yl]propan-1-ol] |  | > 20 | 189 to 190
O=C(CCN1CCN(c2cccc3ccccc23)CC1)c1csc2ccc(F)cc12 [Compound 1] |  | > 20 | 
OC(CCN1CCN(c2ccc(Cl)cc2)CC1)c1csc2ccccc12 (stereo not drawn) [Compound 19] |  | 5.65 | 
O=C(CCN1CC[C@@H](Nc2ccc([N+](=O)[O-])cc2C(F)(F)F)C1)c1csc2ccccc12 [Compound 7, 1-(Benzo[b]thiophen-3-yl)-3-[3-(4-nitro-2-trifluoromethylphenylamino)-(R)-pyrrolidin-1-yl] propan-1-one] |  | > 20 | 98 to 100
OC(CCN1CCN(c2cccc3cccnc23)CC1)c1csc2ccccc12 (stereo not drawn) [Compound 20] |  | 2.15 | 
COc1ccccc1N1CCN(CCC(O)c2c[nH]c3ccccc23)CC1 (stereo not drawn) [Compound 41, 1-(3-Indolyl)-3-[4-(2-methoxyphenyl)piperazin-1-yl]propan-1-ol] | > 20 |  | 188 to 189
O=C(CCN1CCN(c2cnc3ccccc3n2)CC1)c1csc2ccccc12 [Compound 10, 1-(Benzo[b]thiophen-3-yl)-3-[4-(quinoxalin-2-yl)piperazin-1-yl]propan-1-one] |  | > 20 | 145 to 146
O=[N+]([O-])c1ccc(N[C@@H]2CCN(CCC(O)c3csc4ccccc34)C2)c(C(F)(F)F)c1 (stereo partly drawn) [Compound 29, 1-(Benzo[b]thiophen-3-yl)-3-[3-(4-nitro-2-trifluoromethylphenylamino)-(R)-pyrrolidin-1-yl]propan-1-ol] |  | 2.99 | 48 to 50
O=C(CCN1CCCN(c2ccc([N+](=O)[O-])cc2)CC1)c1csc2ccccc12 [Compound 9, 1-(benzo[b]thiophen-3-yl)-3-[4-(4-nitrophenyl)-1,4-diazepan-1-yl]propan-1-one] |  | > 20 | 
OC(CCN1CCN(c2cccc3c2OCCO3)CC1)c1csc2ccc(F)cc12 (stereo not drawn) [Compound 27] |  | 0.9 | 
COc1ccccc1N1CCN(CCC(O)c2ccc3ccccc3c2)CC1 (stereo not drawn) [Compound 42] | 0.83 |  | 
O=C(CCNC1CCN(c2ccc([N+](=O)[O-])cc2)CC1)c1csc2ccccc12 [Compound 8, 1-(Benzo[b]thiophen-3-yl)-3-[1-(4-nitrophenyl)piperidin-4-ylamino]propan-1-one] |  | > 20 | 144 to 145
